Laboratory results taken from patent US20190374554A1, “USE OF OXYGENATED CHOLESTEROL SULFATES (OCS) TO TREAT INFLAMMATORY SKIN DISEASE AND SKIN LESIONS” (Virginia Commonwealth University, priority 2016, published 2019).
“Also recorded” adds a separate entry of the source.

Experiments:
[1] = First cadaver skin flux study (radiolabelled 25HC3S, diffusion cells, % dose recovered); type: in vitro ADME; details: from comparison of formulations in cadaver skin study
Method: The formulations shown in the below Table 22 were made. Each of the below formulations containing drug included 1 wt % non-radiolabelled 25HC3S since the maximum drug loading achieved in Carbopol based creams or gels was 1 wt %. In positive control C1, 20 wt % DMSO was included in EtOH to achieve 1 wt % drug loading.
The procedure for mixing radiolabelled C^14-25HC3S with each formulation was as follows. Formulation (1 mL of each) was placed into 1 mL vials. To each vial was added 5 μL EtOH containing hot material ([…] radiolabelled 25HC3S). The mixture was mixed using a small plunger for 4 to 5 minutes until uniform.
The above formulations were tested on cadaver skin as follows. Dermatomed cadaver skin was obtained from thigh and abdominal areas. A total of 4 donor skin samples (4 separate experiments) were used in the study. Skin samples were placed on diffusion cells (see below) at least 2 hours prior to dosing. Skin sample integrity was examined by measuring […] water loss (TEWL).
The diffusion cells had 1 cm^2 surface area. Each sample at each testing point had 2-3 replicates.
The dose was 10-25 μL of formulation each containing 0.2-0.5 μCi radioactivity per diffusion cell.
The receptor fluid was 6% PEG 400 in PBS. The receptor fluid flow rate was continuous flow at 4.7 mL/hr.
For dose application, the net amount was determined by weight difference before and after dosing application.
The total skin exposure time was 24 hours. After 8 hours of skin exposure, skin surface dose residues were removed by 5% soap-water washing as follows: (1) two times with small cotton balls wetted with 5% clear Ivory® liquid soap (Proctor and Gamble); and (2) two times with cotton balls wetted with distilled de-ionized water to recover the residual drug content, and a final drying with a dry cotton ball. After 16 hours of additional skin exposure (after skin washing), the experiment was finished.
The dosed skin was first tape stripped 10 times followed with heat separation of viable epidermis and dermis. Receptor fluid samples were collected at 30 min, 1 hour, 2 hour, and every 2 hours until the end of the experiment. All samples were counted for radioactivity

chronic dermatitis = assay: Case report: topical therapy of chronic dermatitis following poison ivy attack; type: in vivo, Human; details: one person, topical once every three days, three applications
Method: A case report: A volunteer had been suffering from chronic dermatitis with intense itching following a poison ivy attack two years earlier. The affected area was externally treated with 0.5 ml of 5 mg/ml of 25HC3S sodium salt in a body lotion (Cococare®, Vitamin E Cream) once every three days for a total of three applications.

Molecule: CCCCCCCCCCCCOC(=O)C(C)O (stereo not drawn) [LL, Lauryl lactate]
- trend as permeation enhancer (PE) [1]: may be more effective than PG

Molecule: CCO [EtOH, ethanol]
- trend as permeation enhancer (PE) [1]: high PE; also recorded: great permeation enhancer

Molecule: PEG 400
- trend as permeation enhancer (PE) [1]: poor permeation enhancer

Molecule: CC(O)CO (stereo not drawn) [PG, propylene glycol]
- trend as permeation enhancer (PE) [1]: may be about the same as OA; also recorded: good permeation enhancer

Molecule: C[C@H](CCCC(C)(C)O)[C@H]1CC[C@H]2[C@@H]3CC=C4CC(OS(=O)(=O)[O-])CC[C@]4(C)[C@H]3CC[C@]12C.[Na+] (stereo partly drawn) [25HC3S sodium salt, 5-cholesten-3, 25-diol, 3-sulfate]
- itching, redness and swelling (chronic dermatitis; 0.5 ml of 5 mg/ml in body lotion (Cococare Vitamin E Cream)): Within two days, the itching subsided, and redness and swelling decreased
- skin recovery (chronic dermatitis; 0.5 ml of 5 mg/ml in body lotion): almost completely recovered in 10 days
